Like-named read-outs stand apart in the source and are kept apart here.
Key:
[1] = tested on: nicotinic acetylcholine receptor (nAChR), native in PC12 cells, subunits not specified; assay: inhibition of […] nicotine-induced K+ release from PC12 cells, ion-selective CNT-FET; type: cell-based, Rattus norvegicus
[2] = tested on: nicotinic acetylcholine receptor (nAChR), native in PC12 cells, subunits not specified; assay: agonist-induced K+ release from PC12 cells by ion-selective CNT-FET, Hill fit; type: cell-based, Rattus norvegicus
[3] = tested on: nicotinic acetylcholine receptor (nAChR), native in PC12 cells, subunits not specified

SMILES	IC50 [1]	further results
C[N+](C)(C)CCCCCC[N+](C)(C)C [HB, hexamethonium]	4.58 ± 0.85 pIC50	–
CNC1(C)C2CCC(C2)C1(C)C (stereo not shown) [MH, mecamylamine]	5.74 ± 0.54 pIC50	–

— article PMC7374424, “Ion-Selective Carbon Nanotube Field-Effect Transistors for Monitoring Drug Effects on Nicotinic Acetylcholine Receptor Activation in Live Cells” (Sensors (Basel, Switzerland), 2020)
